Experimental data reported in US20240156790A1, “COMPOUNDS, COMPOSITIONS, AND METHODS FOR MODULATING FERROPTOSIS AND TREATING EXCITOTOXIC DISORDERS” (THE TRUSTEES OF COLUMBIA UNIVERSITY IN THE CITY OF NEW YORK, priority 2018, published 2024).
Like-named read-outs stand apart in the source and are kept apart here.

Tests used:
[1] = Microsomal stability, mouse liver microsomes (Table 1); format: in vitro ADME, Mouse: CD1; conditions: CD1, mouse, liver microsomes, Mouse: CD1; read-out: Microsomal Stability t1/2
Procedure: Each compound (1 μM) is incubated with mouse plasma, for 4 hours at 37° C., with shaking at 100 rpm. The concentration of compound in the buffer and plasma chambers is determined using LC-MS/MS. Metabolism of each compound is predicted using Sites of Metabolism (Schrodinger Suite), which combines intrinsic reactivity analysis (Hammett-Taft) with induced fit docking against 2C9, 2D6 and 3A4. This approach identifies 90% of known metabolism sites and has a false positive rate of 17%. The in vitro metabolic stability of each compound in mouse liver microsomes is determined. Pooled mouse liver microsomes are prepared and stored at −80° C. until needed. […]

[2] = Microsomal stability, rat (Table 1); format: in vitro ADME; conditions: liver microsomes; Rat: Sprague Dawley; read-out: Microsomal Stability t1/2 (converted)
[3] = Microsomal stability, pig (Table 1); format: in vitro ADME; conditions: liver microsomes; Pig: Göttingen Minipig; read-out: Microsomal Stability t1/2
[4] = PHB4082 IP, IV Study (cyclodextrin/PEG/tween vehicle); format: in vivo, C57BL/6 mice; conditions: both sexes, C57BL/6, mouse; for concentration at 2 h / concentration at 4 h: 10 mg/kg
Procedure: C57BL/6 mice (8-weeks of age and ˜25 g weight) were weighed before injection and divided into groups of two male and female mice per cage. PHB4082 was dissolved in 5% DMSO/95% of 1:1 [(65% v/v of 25% w/v 2-hydroxypropyl-3-cyclodextrin (Cayman Chemical) dissolved in 20% EtOH, 30% v/v Poly(ethylene glycol)-400 (Sigma Aldrich 202398), 5% v/v Tween 80 (Fluka 59924)):MilliQ water] to create a 2 mg/mL solution. The same formulation without PHB4082 was used as a vehicle control. The solution was sterilized using a […] Steriflip filter unit (Thomas Scientific 1189Q46). Mice were dosed IP, and IV routes of administration and euthanized by CO2 asphyxiation for 3 min at 2 and 4 h after administration. To ensure that the vehicle was well-tolerated, four mice for each timepoint were treated with vehicle and euthanized 4 h and 24 h after administration. ˜0.5 mL of blood was collected via cardiac puncture and immediately put in K3 EDTA microtubes ([…] 41.1504.105) and kept on ice. Organs were harvested, placed in Eppendorf tubes, and frozen on dry ice. Blood samples were centrifuged for 10 min at 2,100×g at 4° C., then plasma was transferred to a clean tube and frozen on dry ice. Organ samples were weighed and placed in hard tissue homogenizing tubes (Omni International 19-628) and a volume of DEPC-treated nuclease-free water (IBI Scientific IB42200) was added to make a 500 mg/mL solution and homogenized using the Omni Bead Ruptor 4 at speed 5 for 30 seconds. Compound was extracted from plasma or organ homogenate by adding 900 μL acetonitrile to 100 μL plasma or organ homogenate. Samples were mixed by vortexing and allowed to extract overnight at 4° C. prior to mixing for at least 5 min by rotating at room temperature, vortexing, and sonicating for at least 30 second prior to centrifugation for 10 min at 4,000×g and 4° C. The supernatant was then transferred to a glass vial and analyzed by UPLC-MS described below. The base peak chromatogram was integrated and quantified by standard curve concurrently ran.
To determine whether PHB4082 accumulated in brain preferentially over plasma, the log10(Brain/Plasma) ratio was calculated for each time-point with a log10(Brain/Plasma) >0 indicating preferential accumulation in brain over plasma. We observed that PHB4082 did slightly accumulate in brain over plasma as time progressed (FIG. 21B); however, at the time-point where PHB4082 preferentially accumulated in brain, the difference in concentration in the brain compared to plasma was low, indicated by the near 0 log values.

[5] = brain, IP Administration, read-out: [PHB4082]brain
[6] = brain, IV Administration, read-out: [PHB4082]brain
[7] = plasma, IP Administration, read-out: [PHB4082]plasma
[8] = plasma, IV Administration, read-out: [PHB4082]plasma

| Structure (SMILES) | half-life [1] [min] | half-life [2] [min] | half-life [3] [min] | log10 Kp (brain/plasma) ([4]; brain and plasma, other: intraperitoneally and intravenously, 10 mg/kg intraperitoneally and intravenously) | concentration at 2 h [4, 5] [nM] | concentration at 4 h [4, 5] [nM] | concentration at 2 h [4, 6] [nM] | concentration at 4 h [4, 6] [nM] | concentration at 4 h [4, 7] [nM] | concentration at 2 h [4, 8] [nM] | concentration at 4 h [4, 8] [nM] | concentration at 2 h [4, 7] [nM] |
| --- | --- | --- | --- | --- | --- | --- | --- | --- | --- | --- | --- | --- |
| CCOC(=O)c1ccc(NC2CCCCC2)c(N)c1 [Fer-1, Ferrostatin-1, reference compound] | 2.4 | 3 | 16.2 |  |  |  |  |  |  |  |  |  |
| Cc1noc(-c2ccc(NC3CCCCC3)c(NC3CCCCC3)c2)n1 [PHB4082, N1,N2-dicyclohexyl-4-(3-methyl-1,2,4-oxadiazol-5-yl)benzene-1,2-diamine] |  |  |  | < 0 | 114 ± 21 | 99 ± 62 | 557 ± 245 | 176 ± 76 | 306 ± 379 | 634 ± 359 | 281 ± 284 | 957 ± 693 |
